Results: patent publication US12029712B2 (Sun Pharmaceutical Industries, Inc., priority 2017, dated 2024)

What was measured:
rats = experiment: Nephrotoxicity comparison at doses from 150 mg/kg to 750 mg/kg (dose escalation); assay type: in vivo; details: for BUN / creatinine: doses from 150 mg/kg to 750 mg/kg, PO
[1] = target: T1, human NMDAR subunits GluN1 and GluN2A (Homo sapiens, UniProt Q05586); experiment: NMDA receptor activation in automated patch clamp system (ScreenPatch); assay type: cell-based; details: HEK293 cells, 0.003 to 10 μM
T1 construct: expressed in transfected cells; host or cells: HEK293
Description: Peak current and steady state current were measured. The activity at the NMDA receptor was indistinguishable for the two compounds.

Male Sprague-Dawley Rats [2] = experiment: Nephrotoxicity of Compound 100 and non-deuterated D-serine, 150 mg/kg PO (BUN, creatinine, GGT); assay type: in vivo
Source text: (§1) The pharmacokinetic profile of Compound 100 was investigated in male Sprague-Dawley rats compared with that of non-deuterated D-serine. […] Plasma was collected and analyzed for Compound 100 and non-deuterated D-Serine. Additional blood was collected and analyzed for the full clinical chemistry profile.

Male Sprague-Dawley Rats [3] = experiment: Nephrotoxicity dose response of non-deuterated D-serine, 30 to 300 mg/kg PO; assay type: in vivo; details: 24 hr samples, 150 and 300 mg/kg doses, versus control and reference values
Source text: The pharmacokinetic profile of non-deuterated D-serine was investigated in male Sprague-Dawley rats. […] Plasma was collected and analyzed for the non-deuterated D-serine. Additional blood was collected and analyzed for the full clinical chemistry profile.

[4] = Pharmacokinetic profile of Compound 100 versus non-deuterated D-serine, 150 mg/kg PO; assay type: in vivo, male Sprague-Dawley rats
Source text: as §1

[5] = Brain distribution of Compound 100 24 hours after a single 100 mg/kg PO dose; assay type: in vivo, male Sprague-Dawley rats
Description: The distribution profile of Compound 100 was investigated in male Sprague-Dawley rats. […] At 24 hours after dosing, tissues from perfused brain and plasma were collected and analyzed by LC-MS.

[6] = Pharmacokinetics of deuterated and non-deuterated D-serine, PO 10 mg/kg; assay type: in vivo, male Sprague Dawley rats
Description: Three rats were used for each group. Blood was collected at the following time points: for IV dosing: pre-dose, 0.05, 0.167, 0.5, 1, 2, 4, 6, 8 and 12 hours post-dose; for PO dosing: pre-dose, 0.25, 0.5, 1, 2, 4, 6, 8 and 12 hours post-dose PO. Urine was collected at pre-dose (minimum 12 hours), 0-6, 6-12 and 12-24 hours. Plasma samples were analyzed and quantified for dosed compound LC-MS/MS.

[7] = dose escalation 150 mg/kg to 750 mg/kg

## N[C@H](CO)C(=O)O [Non-deuterated D-Serine, D-serine]
rats; [7]
  gross signs of nephrotoxicity: only observed in rats receiving non-deuterated D-serine
rats
  BUN: increasingly elevated levels
  creatinine: increasingly elevated levels
[1]
  activity at the NMDA receptor (peak current and steady state current): indistinguishable
Male Sprague-Dawley Rats [2]; 8 hr and 24 hr serum samples
  blood urea nitrogen (BUN) level: Elevated
Male Sprague-Dawley Rats [2]; 24 hr serum samples
  creatinine level: Elevated
  gamma glutamyl transferase (GGT) level: Elevated
Male Sprague-Dawley Rats [3]
  creatine level: Elevated
  gamma glutamyl transferase (GGT) level: Elevated
  urea nitrogen level: Elevated

## [2H][C@@](N)(CO)C(=O)O [Compound 100, (2R)-2-amino-2-deutero-3-hydroxy-propanoic acid]
rats; [7]
  exposure as measured by AUC and Cmax, compared with non-deuterated D-serine: greater
  gross signs of nephrotoxicity: not Compound 100
rats
  BUN: minimal changes
  creatinine: minimal changes
[4]
  Cmax and AUCinf compared with non-deuterated D-serine: similar
[4]; at 24 hr
  course of concentration in hippocampus: remained steady
[4]; within 24 hr
  course of concentrations in plasma and cortex: decreased
[5]
  concentration in the cortex compared with plasma or other brain locations: greater
[6]
  Tmax compared with non-deuterated D-serine: similar
[1]
  activity at the NMDA receptor (peak current and steady state current): indistinguishable
